Assay results from US8153431B2, “Compositions and methods for making mutations in cell lines and animals” (ABT Holding Company, priority 2001, dated 2012).

How the values were obtained:
Jurkat cells = assay: Cell survival after ENU treatment (limiting dilution); assay type: cell-based, human; details: 2 hours, with 10 uM O-6-BG
Text: (§1) The ability to identify all genetic mutations that can create a phenotype requires that large numbers of mutations be created in as few cells as possible, and the high efficiency of ENU chemical mutagenesis is suited to this task. We set out to determine the ENU treatment needed to create 50-100 cell libraries in which all genes are mutated at least once (defined as a 1× knockout library) in Jurkat cells. To characterize the mutagenesis we measured both cell survival and the mutation rate in characterizing the optimal ENU treatment (Table I). Survival was determined by limiting dilution, and the mutation rate was estimated in the population of surviving clones based on the frequency of knocking out the single copy HPRT gene (assayed by the survival of such HPRT^− cells upon culture in the presence of 6-thioguanine). As shown in the table below, at an ENU dose of 0.2 mg/ml the mutation rate is 0.02 HPRT^− genes/cell and the 1× library size is therefore ˜50 cells. Creation of libraries of these densely mutagenized cells provides a genetically sensitized background in which small increments of further mutagenesis can create phenotypes by knocking out the sole remaining wild type alleles of ENU-mutated genes.
• Jurkat cells were treated with 10 uM O-6-BG (Sigma) at 5×10^5 cells/ml for 16 hours at 37° C. in a humidified incubator with 5% CO2. The pretreated cells were then incubated with desired concentration of ENU (Sigma) in the presence of O-6-BG for 2 hours at 37° C. with constant shaking. At the end of incubation cells were washed with 10-volume 1×PBS three times and resuspended in complete media with 10 uM O-6-BG. 24 hours later O-6-BG was washed off, cells were resuspended in complete media and seeded onto 96-well plate at 20 cells per well or 400-2000 cells per well. Cells were then cultured for 10 days. Viability is determined by the lower density seeding based on number of wells containing growing colonies. To determine mutation frequency, cells seeded at the higher density were used to select for Hprt-loss of function mutants in the presence of 40 uM 6-TG (Sigma). Number of wells containing growing colonies in the presence of 6-TG was scored 7-10 days later. Mutation frequency is calculated as # of 6-TG resistant colony divided by # of viable cells seeded.

single copy HPRT gene = assay: Mutation rate by knockout of single copy HPRT gene (6-thioguanine selection) in Jurkat cells; assay type: cell-based, human
Text: as §1, with “As shown in the table below, at an ENU dose of 0.2 mg/ml the mutation rate is 0.02 HPRT^− genes/cell and the 1× library size is therefore ˜50 cells. Creation of libraries of these densely mutagenized cells provides a genetically sensitized background in which small increments of further mutagenesis can create phenotypes by knocking out the sole remaining wild type alleles of ENU-mutated genes.” left out
• Jurkat cells were treated with 10 uM O-6-BG (Sigma) at 5×10^5 cells/ml for 16 hours at 37° C. in a humidified incubator with 5% CO2. […] Viability is determined by the lower density seeding based on number of wells containing growing colonies. […] Number of wells containing growing colonies in the presence of 6-TG was scored 7-10 days later. Mutation frequency is calculated as # of 6-TG resistant colony divided by # of viable cells seeded.

With CCN(N=O)C(N)=O [ENU, N-ethyl-N-nitrosourea] the “% survival” value (Jurkat cells; ENU 0.1 mg/ml) was 1.83%, the “% survival” value (Jurkat cells; ENU 0.125 mg/ml) was 0.93% and the “% survival” value (Jurkat cells; ENU 0.15 mg/ml) was 1.08%. For the same compound, the “% survival” value (Jurkat cells; ENU 0.175 mg/ml) was 0.88%, the “% survival” value (Jurkat cells; ENU 0.2 mg/ml) was 0.29% and the “% survival” value (Jurkat cells; ENU 0.25 mg/ml) was 0.07%. For the same compound, the mutation rate (single copy HPRT gene; ENU dose of 0.2 mg/ml, Jurkat) was 0.02 HPRT^− genes/cell and the “genes in each cell with knockout in one copy” value (single copy HPRT gene; Jurkat clones after 0.2 mg/ml ENU mutagenesis) was 1-3%.
